Assay results published in patent US7666882B2, “Anthranilamide insecticides” (E.I. du Pont de Nemours and Company, priority 2002, dated 2010).

Test system: potato leafhopper (Empoasca fabae Harris)
Assay: Test D: control of potato leafhopper through contact and/or systemic means on Longio bean plant
Assay type: in vivo
Settings: sprayed at 250 ppm, adults post-infested, 6 days, 19-21° C.
Experimental: Test compounds were formulated using a solution containing 10% acetone, 90% water and 300 ppm X-77® Spreader Lo-Foam Formula non-ionic surfactant containing alkylarylpolyoxyethylene, free fatty acids, glycols and isopropanol (Loveland Industries, Inc.). The formulated compounds were applied in 1 mL of liquid through a SUJ2 atomizer nozzle with ⅛ JJ custom body (Spraying Systems Co.) positioned 1.27 cm (0.5 inches) above the top of each test unit. All experimental compounds in this screen were sprayed at 250 ppm, replicated three times. After spraying of the formulated test compound, each test unit was allowed to dry for 1 hour and then a black, screened cap was placed on top. The test units were held for 6 days in a growth chamber at 19-21° C. and 50-70% relative humidity. Each test unit was then visually assessed for insect mortality.
For evaluating control of potato leafhopper (Empoasca fabae Harris) through contact and/or systemic means, the test unit consisted of a small open container with a 5-6 day old Longio bean plant (primary leaves emerged) inside. White sand was added to the top of the soil and one of the primary leaves was excised prior to application. Test compounds were formulated and sprayed at 250 ppm and replicated three times as described for Test C. […] Each test unit was then visually assessed for insect mortality.

CNC(=O)c1cc(Cl)cc(Cl)c1NC(=O)c1cc(OCC#N)nn1-c1ncccc1Cl [Compound 11]
insect mortality: at least 80%
